From paper PMC12583774 (Nature Communications, 2025)

Target: SARS-CoV-2 NSP14 (Severe acute respiratory syndrome coronavirus 2, UniProt P0DTD1)
Assay type: binding

Which Tm changes does the source give for Nc1nc2c(ncn2[C@@H]2O[C@H](COP(=O)(O)OP(=O)(O)OP(=O)(O)OC[C@H]3O[C@@H](n4cnc5c(=O)[nH]c(N)nc54)[C@H](O)[C@@H]3O)[C@@H](O)[C@H]2O)c(=O)[nH]1 [GpppG, G(5′)ppp(5′)G RNA Cap Structure Analog] here?
Its Tm changes is “negligible Tm changes”.

How did the “Tm shift, maximum reached” value turn out when Nc1ncnc2c1ncn2[C@@H]1O[C@H](CSCC[C@H](N)C(=O)O)[C@@H](O)[C@H]1O [SAH] was run?
Its value is at most 10.0 °C.

C[S+](CC[C@H](N)C(=O)[O-])C[C@H]1O[C@@H](n2cnc3c(N)ncnc32)[C@H](O)[C@@H]1O (stereo partly shown) [SAM, S-adenosylmethionine] was tested. Which Tm changes did it give?
The Tm changes was “negligible Tm changes”.

Cn1c[n+]([C@@H]2O[C@H](COP(=O)(O)OP(=O)([O-])OP(=O)(O)OC[C@H]3O[C@@H](n4cnc5c(=O)[nH]c(N)nc54)[C@H](O)[C@@H]3O)[C@@H](O)[C@H]2O)c2nc(N)[nH]c(=O)c21 [m7GpppG] was tested. Which Tm changes did it give?
The Tm changes was “negligible Tm changes”.
